Patent EP1857440A1, “Novel compounds, isomer thereof, or pharmaceutically acceptable salts thereof as vanilloid receptor antagonist; and pharmaceutical compositions containing the same” (Amorepacific Corporation, priority 2006, dated 2007)

Legend:
[1] = target: T1, vanilloid receptor (Rattus norvegicus, UniProt O35433); assay: 45Ca influx test (calcium uptake) in primary cultured neonatal rat DRG neurons, capsaicin-stimulated; type: cell-based, SD rats; conditions: capsaicin 0.5 µM; for IC50: 45Ca 10 µCi/ml, 10 mins at room temperature, read-out: Antagonist Calcium Uptake Test (IC50)
T1 construct: DRG nerve cells from the primary culture of 2 days were equilibrated by washing 4 times; endogenous in cells; host or cells: primary culture of dorsal root ganglion (DRG) neurons from neonatal SD rats
T1 sequence (O35433 whole entry): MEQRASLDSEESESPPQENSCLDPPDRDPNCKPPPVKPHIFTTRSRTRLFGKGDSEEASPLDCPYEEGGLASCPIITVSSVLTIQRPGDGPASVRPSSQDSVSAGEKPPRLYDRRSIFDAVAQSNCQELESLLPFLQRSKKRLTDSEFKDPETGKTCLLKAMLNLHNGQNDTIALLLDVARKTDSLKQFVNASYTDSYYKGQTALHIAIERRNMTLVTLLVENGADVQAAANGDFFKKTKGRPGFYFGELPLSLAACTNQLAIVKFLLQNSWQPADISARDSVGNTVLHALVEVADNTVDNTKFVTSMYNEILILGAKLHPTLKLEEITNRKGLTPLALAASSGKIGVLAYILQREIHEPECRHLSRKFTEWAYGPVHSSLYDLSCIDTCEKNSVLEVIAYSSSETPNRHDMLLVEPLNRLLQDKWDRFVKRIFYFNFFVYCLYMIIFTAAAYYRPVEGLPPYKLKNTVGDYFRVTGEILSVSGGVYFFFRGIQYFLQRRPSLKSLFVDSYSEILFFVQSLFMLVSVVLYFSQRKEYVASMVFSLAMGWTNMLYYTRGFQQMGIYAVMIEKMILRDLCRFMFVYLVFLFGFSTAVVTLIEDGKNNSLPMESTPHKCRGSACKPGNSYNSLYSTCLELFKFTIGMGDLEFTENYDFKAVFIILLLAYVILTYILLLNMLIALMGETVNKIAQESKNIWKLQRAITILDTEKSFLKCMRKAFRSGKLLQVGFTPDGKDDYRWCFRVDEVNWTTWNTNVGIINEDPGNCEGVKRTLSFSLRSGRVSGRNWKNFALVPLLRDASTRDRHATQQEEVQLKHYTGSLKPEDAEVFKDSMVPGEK
Description: 1) Separation of spinal dorsal root ganglia (DRG) in newborn rats and primary culture thereof
Neonatal (2-3 day old or younger than 2-3 day old) SD rats were put in ice for 5 minutes to anesthetize and disinfected with 70% ethanol. DRG of all part of spinal cord were dissected (Wood et al., 1988, J. Neurosci. 8, pp3208-3220) and collected in DME/F12 medium to which 1.2g/l sodium bicarbonate, 50mg/l gentamycin were added. The DRG were incubated sequentially at 37°C for 30 min in 200 U/ml collagenase and 2.5mg/ml trypsin, separately. The gangiia were washed twice with DME/F12 medium supplemented with 10% horse serum, triturated through a fire-polished Pasteur pipette, filtered through Nitex 80 membrane to obtain single cell suspension and the suspension was washed once more. This was subjected to centrifugation, then resuspended in cell culture medium at certain level of cell density. As the cell culture medium, DME/F12 medium supplemented with 10% horse serum was diluted with identical medium conditioned by C6 glioma cells 2 days on a confluent monolayer (1:1), and NGF (Nerve Growth Factor) was added to adjust 200ng/ml as final concentration. After the cells were grown 2 days in medium where cytosine arabinoside (Ara-C, 100 µM) was added to kill dividing nonneuronal cells, medium was changed to one without Ara-C. The resuspended cells were plated at a density of 1500-2000 neurons/well onto Terasaki plates previously coated with 10 µg/ml poly-D-ornithine.
2) ^45 Ca influx experiments
DRG nerve cells from the primary culture of 2 days were equilibrated by washing 4 times with HEPES (10mM, pH 7.4)-buffered Ca ^2+, Mg^2+-free HBSS (H-HBSS). The solution in each well was removed from the individual well. Medium containing the test compound plus capsaicin (final concentration 0.5 µM) and ^45Ca (final concentration 10 µCi/ml) in H-HBSS was added to each well and incubated at room temperature for 10 mins. Terasaki plates were washed five times with H-HBSS and dried at room temperature. To each well, 0.3% SDS (10 µl) was added to elute ^45Ca. After the addition of scintillation cocktail of into each well, the amount of ^45Ca influx into neuron was measured by counting radioactivity. […] [Table 1] Results of Calcium Influx Test

[2] = test system: Male ICR mice; assay: Analgesic activity test: mouse writhing test induced with phenyl-p-quinone; type: in vivo; conditions: ip, 0.5 h, 30 min before phenyl-p-quinone, read-out: Analgesic effect (%Inhibition); for inhibition in vivo at 1 mg/kg: Dose 1 mg/kg intraperitoneally
Description: 2. Analgesic activity test: Mouse writhing test by inducing with phenyl-p-quinone
Male ICR mice (mean body weight 25g) were maintained in a controlled lighting environment (12 h on/ 12 h off) for experiment. Animals received an intraperitoneal injection of 0.3ml of the chemical irritant phenyl-p-quinone (dissolved in saline containing 5% ethanol to be a dose of 4.5mg/kg) and 6 mins later, the number of abdominal constrictions was counted in the subsequent 6 mins period. Animals (10 animals/group) received 0.2ml of test compounds solution in vehicle of ethanol/Tween 80/saline (10/10/80) intraperitoneally 30 min before the injection of phenyl-p-quinone. A reduction in the number of writhes responding to the test drug compound relative to the number responding in saline control group was considered to be indicative of an analgesic effect. Analgesic effect was calculated by % inhibition equation (% inhibition=(C-T)/C x 100), wherein C and T represent the number of writhes in control and compound-treated group, respectively (Table 2).

| SMILES | IC50 [1] | other results |
| --- | --- | --- |
| C[C@@H](NC(=O)COc1ccc(C(C)(C)C)cc1)c1ccc(NS(C)(=O)=O)c(F)c1 [Example 12, (R)-2-(4-tert-Butylphenoxy)-N-[1-(3-fluoro-4-methanesuffonylaminophenyl)ethyl]acetamide] | 71 nM | inhibition in vivo at 1 mg/kg [2]: 27% |
| CS(=O)(=O)Nc1ccc(CNC(=O)COc2ccc(C(F)(F)F)cc2)cc1F [Example 24, N-(3-Fluoro-4-methanesulfonylamino-benzyl)-2-(4-trifluoromethylphenoxy)-acetamide] | 1300 nM | inhibition in vivo at 10 mg/kg ([2]; Dose 10 mg/kg intraperitoneally): 28% |
| CC(C)(C)c1ccc(OCC(=O)NCc2ccc(NS(C)(=O)=O)c(F)c2)cc1 [Example 2, 2-(4-tert-Butylphenoxy)-N-(3-fluoro-4-methanesulfonylaminobenzyl)acetamide] | 8.6 nM | inhibition in vivo at 0.3 mg/kg ([2]; Dose 0.3 mg/kg intraperitoneally): 51% |
| C=Cc1cc(CNC(=O)COc2ccc(C(C)(C)C)cc2)cc(F)c1NS(C)(=O)=O [Example 5, 2-(4-tert-Butylphenoxy)-N-(3-fluoro-4-methanesulfonylamino-5-vinylbenzyl)acetamide] | 34 nM | inhibition in vivo at 1 mg/kg [2]: 59% |
| C#Cc1cc(CNC(=O)COc2ccc(C(C)(C)C)cc2)cc(F)c1NS(C)(=O)=O [Example 6, 2-(4-tert-Butylphenoxy)-N-(3-ethynyl-5-fluoro-4-methanesulfonylaminobenzyl)acetamide] | 19 nM | inhibition in vivo at 0.1 mg/kg ([2]; Dose 0.1 mg/kg intraperitoneally): 41% |
| CC(C)c1ccc(OCC(=O)NCc2ccc(NS(C)(=O)=O)c(F)c2)cc1 [Example 52, N-(3-Fluoro-4-methanesulfonylaminobenzyl)-2-(4-isopropylphenoxy)acetamide] | 69 nM | inhibition in vivo at 1 mg/kg [2]: 49% |
| CS(=O)(=O)Nc1ccc(CNC(=O)COc2cccc(Cl)c2)cc1F [Example 42, N-(3-Fluoro-4-methanesulfonylaminobenzyl)-2-(3-chlorophenoxy)acetamide] | > 10000 nM |  |
| Cc1cc(OCC(=O)NCc2ccc(NS(C)(=O)=O)c(F)c2)ccc1[N+](=O)[O-] [Example 35, N-(3-Fluoro-4-methanesulfonylaminobenzyl)-2-(3-methyl-4-nitrophenoxy)acetamide] | > 10000 nM |  |
| COc1cc(Cl)ccc1OCC(=O)NCc1ccc(NS(C)(=O)=O)c(F)c1 [Example 32, 2-(4-Chloro-2-methoxy-phenoxy)-N-(3-fluoro-4methanesulfonylamino-benzyl)-acetamide] | > 10000 nM |  |
| CCc1cc(CNC(=O)COc2ccc(C(C)(C)C)cc2)cc(F)c1NS(C)(=O)=O [Example 7, 2-(4-tert-Butylphenoxy)-N-(3-ethyl-5-fluoro-4-methanesulfonylaminobenzyl)acetamide] | 130 nM |  |
| CS(=O)(=O)Nc1ccc(CNC(=O)COc2ccc3c(c2)CCC3)cc1F [Example 62, N-(3-Fluoro-4-methanesulfonylaminobenzyl)-2-(indan-5-yloxy)acetamide] |  | Antagonist Calcium Uptake Test (% @ 10 µM) ([1]; 10 µM test compound): 82% @ 10 µM |
| CS(=O)(=O)Nc1ccc(CNC(=O)COc2ccc3c(c2)OCO3)cc1F [Example 29, 2-(Benzo[1,3]dioxol-5-yloxy)-N-(3-fluoro-4-methanesulfonylaminobenzyl)-acetamide] | > 10000 nM |  |
| CS(=O)(=O)Nc1ccc(CNC(=O)COc2cccc(Br)c2)cc1F [Example 46, 2-(3-Bromo-phenoxy)-N-(3-fluoro-4-methanesulfonylamino-benzyl)-acetamide] | 1700 nM |  |
| C=Cc1cc(CNC(=O)COc2ccc(C(C)(C)C)cc2)ccc1NS(C)(=O)=O [Example 4, 2-(4-tert-Butylphenoxy)-N-(4-methanesulfonylamino-3-vinylbenzyl)acetamide] | 81 nM |  |
| CC(C)(C)c1ccc(OCC(=O)NCc2ccc(NS(C)(=O)=O)c(F)c2)c(C(C)(C)C)c1 [Example 55, N-(3-Fluoro-4-methanesulfonylaminobenzyl)-2-(2,4-di-tert-butylphenoxy)acetamide] | 5600 nM |  |
| C[C@@H](N/C(COc1ccc(C(C)(C)C)cc1)=N/C#N)c1ccc(NS(C)(=O)=O)cc1 [Example 17, (R)-2-(4-tert-Butylphenoxy)-N-[1-(4-methanesulfonylaminophenyl)ethyl]-N'-cyanoacetamidine] | 210 nM |  |
| CCC(C)(C)c1ccc(OCC(=O)NCc2ccc(NS(C)(=O)=O)c(F)c2)cc1 [Example 57, N-(3-Fluoro-4-methanesulfonylaminobenzyl)-2-(4-(1,1-dimethylpropyl)phenoxy)acetamide] | 130 nM |  |
| CCC(C)c1ccc(OCC(=O)NCc2ccc(NS(C)(=O)=O)c(F)c2)cc1 (stereo not drawn) [Example 53, N-(3-Fluoro-4-methanesulfonylaminobenzyl)-2-(4-sec-butylphenoxy)acetamide] | 74 nM | inhibition in vivo at 1 mg/kg [2]: 49% |
| CS(=O)(=O)Nc1ccc(CNC(=O)COc2ccc(C3CCCCC3)cc2)cc1F [Example 64, N-(3-fluoro-4-methanesulfonylamino-benzyl)-2-(4-Cyclohexylphenoxy)-acetamide] | > 10000 nM |  |
| CC(C)(C)c1ccc(OC(F)C(=O)NCc2ccc(NS(C)(=O)=O)c(F)c2)cc1 (stereo not drawn) [Example 48, 2-(4-tert-Butylphenoxy)-2-fluoro-N-(3-fluoro-4-methanesulfonylaminobenzyl)acetamide] | 180 nM |  |
| CS(=O)(=O)Nc1ccc(CNC(=O)COc2c(I)cc(C(F)(F)F)cc2I)cc1F [Example 38, 2-(2,6-Diiodo-4-trifluoromethyl-phenoxy)-N-(3-fluoro-4-methanesulfonylamino-benzyl)-acetamide] | 2600 nM |  |
| CS(=O)(=O)Nc1ccc(CNC(=O)COc2ccc(OC(F)(F)F)cc2)cc1F [Example 28, N-(3-Fluoro-4-methanesulfonylaminobenzyl)-2-(4-(trifluoromethoxy)phenoxy)acetamide] | 4300 nM |  |
| CS(=O)(=O)Nc1ccc(CNC(=O)COc2ccc(Br)cc2)cc1F [Example 45, 2-(4-Bromo-phenoxy)-N-(3-fluoro-4-methanesulfonylamino-benzyl)-acetamide] | 3700 nM |  |
| CC(C)(C)c1ccc(OCC(=NC#N)NCc2ccc(NS(C)(=O)=O)c(F)c2)cc1 [Example 18, 2-(4-tert-Butylphenoxy)-N-(3-fluoro-4-methanesulfonylaminobenzyl)-N'-cyanoacetamidine] | 120 nM | inhibition in vivo at 1 mg/kg [2]: 33% |
| CS(=O)(=O)Nc1ccc(CNC(=O)COc2ccc(I)cc2)cc1F [Example 36, N-(3-Fluoro-4-methanesulfonylamino-benzyl)-2-(4-iodo-phenoxy)-acetamide] | 1200 nM |  |
| CC(C)(C)c1ccc(OCC(=O)NCc2ccc(NS(C)(=O)=O)c(Cl)c2)cc1 [Example 3, 2-(4-tert-Butylphenoxy)-N-(3-chloro-4-methanesulfonylaminobenzyl)-acetamide] | 180 nM | inhibition in vivo at 1 mg/kg [2]: 39% |
| CC(=O)c1cc(C(F)(F)F)ccc1OCC(=O)NCc1ccc(NS(C)(=O)=O)c(F)c1 [Example 44, 2-(2-Acetyl-4-trifluoromethyl-phenoxy)-N-(3-fluoro-4-methanesulfonylamino-benzyl)-acetamide] | > 10000 nM |  |
